Structures can show the parent of a compound that is named as a salt. Each block holds one compound with its values, some of them ahead of it.
Legend:
αvβ1 = αvβ1 (Homo sapiens, UniProt P05556+P06756); assay: Solid Phase Integrin αvβ1 Assay; assay type: binding
Outline: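 Compound competes for αvβ1 binding to immobilized TGFb1-LAP (1 µg/mL coat) in Mn2+ (1 mM MnCl2), 2% BSA binding buffer over 90 min at room temperature, integrin added at 0.2 µg/mL. Read-out: streptavidin-HRP/TMB; IC50 from Levenberg-Marquardt four-parameter fit.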

αvβ6 = αvβ6 (Homo sapiens, UniProt P06756+P18564); assay: Solid Phase Integrin αvβ6 Assay; assay type: binding
Chain of αvβ6 (P06756 31-992 limits assumed): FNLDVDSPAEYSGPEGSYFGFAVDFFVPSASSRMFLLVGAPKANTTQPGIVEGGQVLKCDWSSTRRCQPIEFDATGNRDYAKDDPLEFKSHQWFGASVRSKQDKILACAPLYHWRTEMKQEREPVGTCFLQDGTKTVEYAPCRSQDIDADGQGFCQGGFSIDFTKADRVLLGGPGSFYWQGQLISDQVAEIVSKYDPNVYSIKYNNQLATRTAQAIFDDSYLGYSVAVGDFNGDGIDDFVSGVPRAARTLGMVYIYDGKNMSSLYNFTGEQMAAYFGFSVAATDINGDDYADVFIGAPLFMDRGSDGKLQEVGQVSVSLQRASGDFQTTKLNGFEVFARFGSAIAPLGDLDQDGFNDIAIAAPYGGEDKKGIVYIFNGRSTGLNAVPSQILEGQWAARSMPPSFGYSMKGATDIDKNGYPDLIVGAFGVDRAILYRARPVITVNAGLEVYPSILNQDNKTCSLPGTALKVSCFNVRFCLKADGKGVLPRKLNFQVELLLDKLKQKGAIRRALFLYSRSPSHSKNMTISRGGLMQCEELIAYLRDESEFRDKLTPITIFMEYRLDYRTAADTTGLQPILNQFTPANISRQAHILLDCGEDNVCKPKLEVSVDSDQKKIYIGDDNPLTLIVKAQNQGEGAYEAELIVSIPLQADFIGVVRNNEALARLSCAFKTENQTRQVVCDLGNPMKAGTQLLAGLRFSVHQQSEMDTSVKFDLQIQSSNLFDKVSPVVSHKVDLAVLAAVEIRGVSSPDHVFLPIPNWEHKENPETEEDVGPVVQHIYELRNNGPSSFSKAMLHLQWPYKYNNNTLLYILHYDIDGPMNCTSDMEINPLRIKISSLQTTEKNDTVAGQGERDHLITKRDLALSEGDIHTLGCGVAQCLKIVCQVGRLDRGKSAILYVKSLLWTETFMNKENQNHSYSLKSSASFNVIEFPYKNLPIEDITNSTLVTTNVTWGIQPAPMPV
Chain of αvβ6 (P18564 22-707 limits assumed): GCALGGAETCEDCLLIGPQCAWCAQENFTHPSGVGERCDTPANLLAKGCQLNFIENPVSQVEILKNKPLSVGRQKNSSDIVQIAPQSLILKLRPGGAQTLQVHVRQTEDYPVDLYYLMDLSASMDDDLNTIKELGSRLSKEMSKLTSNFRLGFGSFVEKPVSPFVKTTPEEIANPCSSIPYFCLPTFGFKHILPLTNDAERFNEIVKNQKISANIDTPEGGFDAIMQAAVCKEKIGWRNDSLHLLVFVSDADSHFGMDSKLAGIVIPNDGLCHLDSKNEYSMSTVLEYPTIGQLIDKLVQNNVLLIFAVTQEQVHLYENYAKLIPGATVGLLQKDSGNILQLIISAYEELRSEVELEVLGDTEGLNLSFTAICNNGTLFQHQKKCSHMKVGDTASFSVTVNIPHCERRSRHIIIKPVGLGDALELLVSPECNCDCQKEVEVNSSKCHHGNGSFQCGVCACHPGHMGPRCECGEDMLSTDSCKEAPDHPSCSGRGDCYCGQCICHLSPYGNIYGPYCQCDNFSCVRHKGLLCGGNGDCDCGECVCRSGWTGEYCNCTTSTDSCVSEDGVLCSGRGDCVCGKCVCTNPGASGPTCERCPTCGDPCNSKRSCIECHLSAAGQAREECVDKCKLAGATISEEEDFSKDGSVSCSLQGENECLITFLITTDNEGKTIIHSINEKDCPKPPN
Outline: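 Inhibition of αvβ6 binding to immobilized recombinant TGFb1-LAP (1 μg/mL coating), 1 h at room temperature with 1 mM MnCl2 in BSA/TBST buffer, integrin diluted to 0.2 μg/mL before addition. Streptavidin-HRP/TMB read-out; four-parameter logistic fitting gave IC50.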

Chain of αvβ1 (P06756 31-992 limits assumed): as the sequence (P06756 31-992 limits assumed) above
Chain of αvβ1 (P05556 21-728 limits assumed): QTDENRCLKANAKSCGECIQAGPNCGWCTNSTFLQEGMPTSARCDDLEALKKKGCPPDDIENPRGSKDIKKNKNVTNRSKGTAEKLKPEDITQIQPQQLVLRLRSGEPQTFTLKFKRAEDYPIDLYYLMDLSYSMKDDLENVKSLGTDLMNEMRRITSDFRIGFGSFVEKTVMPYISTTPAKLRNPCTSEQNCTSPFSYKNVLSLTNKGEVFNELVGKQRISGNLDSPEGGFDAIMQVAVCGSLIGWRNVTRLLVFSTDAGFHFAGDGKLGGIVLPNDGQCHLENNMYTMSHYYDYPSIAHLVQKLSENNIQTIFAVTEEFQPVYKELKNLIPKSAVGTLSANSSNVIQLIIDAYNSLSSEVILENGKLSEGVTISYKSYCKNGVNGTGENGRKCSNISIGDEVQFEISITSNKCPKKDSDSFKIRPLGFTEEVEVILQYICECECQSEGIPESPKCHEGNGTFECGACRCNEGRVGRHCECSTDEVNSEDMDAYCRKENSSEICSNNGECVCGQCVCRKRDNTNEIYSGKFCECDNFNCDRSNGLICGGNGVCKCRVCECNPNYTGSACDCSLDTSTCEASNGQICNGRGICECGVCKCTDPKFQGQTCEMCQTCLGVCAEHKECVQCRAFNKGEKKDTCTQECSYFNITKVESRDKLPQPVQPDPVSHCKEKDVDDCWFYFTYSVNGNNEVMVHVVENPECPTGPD

IC50 (αvβ1): > 1 µM | IC50 (αvβ6): < 0.1 µM
Structure (SMILES): O=C(NC[C@H](C(=O)O)c1cccc(C(F)(F)F)c1)[C@@H]1CCCN(CCCc2ccc3c(n2)NCCC3)C1 [Compound 252-B, 3-((R)-1-(3-(5,6,7,8-tetrahydro-1,8-naphthyridin-2-yl)propyl)piperidine-3-carboxamido)-2-(3-(trifluoromethyl)phenyl)propanoic acid]

IC50 (αvβ1): < 0.1 µM | IC50 (αvβ6): < 0.1 µM
Structure (SMILES): O=C(NC[C@H](C(=O)O)c1cccc2c1CCCC2)[C@@H]1CCCN(CCCc2ccc3c(n2)NCCC3)C1 [Compound 253-A, 3-((R)-1-(3-(5,6,7,8-tetrahydro-1,8-naphthyridin-2-yl)propyl)piperidine-3-carboxamido)-2-(5,6,7,8-tetrahydronaphthalen-1-yl)propanoic acid]

IC50 (αvβ1): 0.1 to 1 µM | IC50 (αvβ6): > 1 µM
Structure (SMILES): O=C(NC[C@@H](C(=O)O)c1cccc2c1CCCC2)[C@@H]1CCCN(CCCc2ccc3c(n2)NCCC3)C1 [Compound 253-B, 3-((R)-1-(3-(5,6,7,8-tetrahydro-1,8-naphthyridin-2-yl)propyl)piperidine-3-carboxamido)-2-(5,6,7,8-tetrahydronaphthalen-1-yl)propanoic acid]

IC50 (αvβ1): < 0.1 µM | IC50 (αvβ6): 0.1 to 1 µM
Structure (SMILES): O=C(NC[C@H](C(=O)O)c1ccc2c(c1)CCC2)[C@@H]1CCCN(CCCc2ccc3c(n2)NCCC3)C1 [Compound 254-A, 2-(2,3-dihydro-1H-inden-5-yl)-3-((R)-1-(3-(5,6,7,8-tetrahydro-1,8-naphthyridin-2-yl)propyl)piperidine-3-carboxamido)propanoic acid]

IC50 (αvβ1): < 0.1 µM | IC50 (αvβ6): < 0.1 µM
Structure (SMILES): O=C(NC[C@@H](C(=O)O)c1ccc2c(c1)CCC2)[C@@H]1CCCN(CCCc2ccc3c(n2)NCCC3)C1 [Compound 254-B, 2-(2,3-dihydro-1H-inden-5-yl)-3-((R)-1-(3-(5,6,7,8-tetrahydro-1,8-naphthyridin-2-yl)propyl)piperidine-3-carboxamido)propanoic acid]

IC50 (αvβ1): < 0.1 µM | IC50 (αvβ6): < 0.1 µM
Structure (SMILES): O=C(O)C(CNC(=O)[C@@H]1CCCN(CCCc2ccc3c(n2)NCCC3)C1)c1cccc(Br)c1 (stereo partly drawn) [Compound 255, 2-(3-bromophenyl)-3-((R)-1-(3-(5,6,7,8-tetrahydro-1,8-naphthyridin-2-yl)propyl)piperidine-3-carboxamido)propanoic acid hydrochloride]

IC50 (αvβ1): 0.1 to 1 µM | IC50 (αvβ6): 0.1 to 1 µM
Structure (SMILES): O=C(NC[C@@H](C(=O)O)c1cccc(-c2ccccc2)c1)[C@@H]1CCCN(CCCc2ccc3c(n2)NCCC3)C1 [Compound 256-A, 2-([1,1′-biphenyl]-3-yl)-3-((R)-1-(3-(5,6,7,8-tetrahydro-1,8-naphthyridin-2-yl)propyl)piperidine-3-carboxamido)propanoic acid]

IC50 (αvβ1): < 0.1 µM | IC50 (αvβ6): < 0.1 µM
Structure (SMILES): O=C(NC[C@H](C(=O)O)c1cccc(-c2ccccc2)c1)[C@@H]1CCCN(CCCc2ccc3c(n2)NCCC3)C1 [Compound 256-B, 2-([1,1′-biphenyl]-3-yl)-3-((R)-1-(3-(5,6,7,8-tetrahydro-1,8-naphthyridin-2-yl)propyl)piperidine-3-carboxamido)propanoic acid]

IC50 (αvβ1): < 0.1 µM | IC50 (αvβ6): < 0.1 µM
Structure (SMILES): Cc1cc(C)n(-c2cccc([C@H](CNC(=O)[C@@H]3CCCN(CCCc4ccc5c(n4)NCCC5)C3)C(=O)O)c2)n1 [Compound 257-A, 2-(3-(3,5-dimethyl-1H-pyrazol-1-yl)phenyl)-3-((R)-1-(3-(5,6,7,8-tetrahydro-1,8-naphthyridin-2-yl)propyl)piperidine-3-carboxamido)propanoic acid]

IC50 (αvβ1): < 0.1 µM | IC50 (αvβ6): < 0.1 µM
Structure (SMILES): Cc1cc(C)n(-c2cccc([C@@H](CNC(=O)[C@@H]3CCCN(CCCc4ccc5c(n4)NCCC5)C3)C(=O)O)c2)n1 [Compound 257-B, 2-(3-(3,5-dimethyl-1H-pyrazol-1-yl)phenyl)-3-((R)-1-(3-(5,6,7,8-tetrahydro-1,8-naphthyridin-2-yl)propyl)piperidine-3-carboxamido)propanoic acid]

IC50 (αvβ1): 0.1 to 1 µM | IC50 (αvβ6): 0.1 to 1 µM
Structure (SMILES): O=C(NC[C@H](C(=O)O)c1cccc(C2CC2)c1)[C@@H]1CCCN(CCCc2ccc3c(n2)NCCC3)C1 [Compound 258-A, 2-(3-cyclopropylphenyl)-3-((R)-1-(3-(5,6,7,8-tetrahydro-1,8-naphthyridin-2-yl)propyl)piperidine-3-carboxamido)propanoic acid]

IC50 (αvβ1): < 0.1 µM | IC50 (αvβ6): < 0.1 µM
Structure (SMILES): O=C(NC[C@@H](C(=O)O)c1cccc(C2CC2)c1)[C@@H]1CCCN(CCCc2ccc3c(n2)NCCC3)C1 [Compound 258-B, 2-(3-cyclopropylphenyl)-3-((R)-1-(3-(5,6,7,8-tetrahydro-1,8-naphthyridin-2-yl)propyl)piperidine-3-carboxamido)propanoic acid]

IC50 (αvβ1): < 0.1 µM | IC50 (αvβ6): < 0.1 µM
Structure (SMILES): O=C(NC[C@H](C(=O)O)c1ccc(C2CC2)cc1)[C@@H]1CCCN(CCCc2ccc3c(n2)NCCC3)C1 [Compound 259-A, 2-(4-cyclopropylphenyl)-3-((R)-1-(3-(5,6,7,8-tetrahydro-1,8-naphthyridin-2-yl)propyl)piperidine-3-carboxamido)propanoic acid]

IC50 (αvβ1): < 0.1 µM | IC50 (αvβ6): < 0.1 µM
Structure (SMILES): O=C(NC[C@H](C(=O)O)c1ccccc1C1CC1)[C@@H]1CCCN(CCCc2ccc3c(n2)NCCC3)C1 [Compound 260-A, 2-(2-cyclopropylphenyl)-3-((R)-1-(3-(5,6,7,8-tetrahydro-1,8-naphthyridin-2-yl)propyl)piperidine-3-carboxamido)propanoic acid]

IC50 (αvβ1): 0.1 to 1 µM | IC50 (αvβ6): > 1 µM
Structure (SMILES): O=C(NC[C@@H](C(=O)O)c1ccccc1C1CC1)[C@@H]1CCCN(CCCc2ccc3c(n2)NCCC3)C1 [Compound 260-B, 2-(2-cyclopropylphenyl)-3-((R)-1-(3-(5,6,7,8-tetrahydro-1,8-naphthyridin-2-yl)propyl)piperidine-3-carboxamido)propanoic acid]

Second part, the compound before the results:

Structure (SMILES): O=C(O)C[C@@H](NC(=O)[C@@H]1CCCN(CCCc2ccc3c(n2)NCCC3)C1)c1cc(C2CC2)ccc1F [Compound 245-B, 3-(5-cyclopropyl-2-fluorophenyl)-3-((R)-1-(3-(5,6,7,8-tetrahydro-1,8-naphthyridin-2-yl)propyl)piperidine-3-carboxamido)propanoic acid]
IC50 (αvβ1): < 0.1 µM | IC50 (αvβ6): < 0.1 µM

Structure (SMILES): O=C(NC[C@@H](C(=O)O)c1ccccc1)[C@@H]1CCCN(CCCc2ccc3c(n2)NCCC3)C1 [Compound 246, (S)-2-phenyl-3-((R)-1-(3-(5,6,7,8-tetrahydro-1,8-naphthyridin-2-yl)propyl)piperidine-3-carboxamido)propanoic acid]
IC50 (αvβ1): < 0.1 µM | IC50 (αvβ6): < 0.1 µM

Structure (SMILES): O=C(NC[C@H](C(=O)O)c1ccccc1)[C@@H]1CCCN(CCCc2ccc3c(n2)NCCC3)C1 [Compound 247, (R)-2-phenyl-3-((R)-1-(3-(5,6,7,8-tetrahydro-1,8-naphthyridin-2-yl)propyl)piperidine-3-carboxamido)propanoic acid]
IC50 (αvβ1): < 0.1 µM | IC50 (αvβ6): < 0.1 µM

Structure (SMILES): O=C(NC[C@H](C(=O)O)c1ccc2c(c1)CCCC2)[C@@H]1CCCN(CCCc2ccc3c(n2)NCCC3)C1 [Compound 248-A, 3-((R)-1-(3-(5,6,7,8-tetrahydro-1,8-naphthyridin-2-yl)propyl)piperidine-3-carboxamido)-2-(5,6,7,8-tetrahydronaphthalen-2-yl)propanoic acid]
IC50 (αvβ1): 0.1 to 1 µM | IC50 (αvβ6): 0.1 to 1 µM

Structure (SMILES): O=C(NC[C@@H](C(=O)O)c1ccc2c(c1)CCCC2)[C@@H]1CCCN(CCCc2ccc3c(n2)NCCC3)C1 [Compound 248-B, 3-((R)-1-(3-(5,6,7,8-tetrahydro-1,8-naphthyridin-2-yl)propyl)piperidine-3-carboxamido)-2-(5,6,7,8-tetrahydronaphthalen-2-yl)propanoic acid]
IC50 (αvβ1): < 0.1 µM | IC50 (αvβ6): < 0.1 µM

Structure (SMILES): O=C(NC[C@H](C(=O)O)c1ccc2ccccc2c1)[C@@H]1CCCN(CCCc2ccc3c(n2)NCCC3)C1 [Compound 249-A, 2-(naphthalen-2-yl)-3-((R)-1-(3-(5,6,7,8-tetrahydro-1,8-naphthyridin-2-yl)propyl)piperidine-3-carboxamido)propanoic acid]
IC50 (αvβ1): < 0.1 µM | IC50 (αvβ6): < 0.1 µM

Structure (SMILES): O=C(NC[C@@H](C(=O)O)c1ccc2ccccc2c1)[C@@H]1CCCN(CCCc2ccc3c(n2)NCCC3)C1 [Compound 249-B, 2-(naphthalen-2-yl)-3-((R)-1-(3-(5,6,7,8-tetrahydro-1,8-naphthyridin-2-yl)propyl)piperidine-3-carboxamido)propanoic acid]
IC50 (αvβ1): < 0.1 µM | IC50 (αvβ6): < 0.1 µM

Structure (SMILES): O=C(NC[C@@H](C(=O)O)c1cccc2ccccc12)[C@@H]1CCCN(CCCc2ccc3c(n2)NCCC3)C1 [Compound 250-A, 2-(naphthalen-1-yl)-3-((R)-1-(3-(5,6,7,8-tetrahydro-1,8-naphthyridin-2-yl)propyl)piperidine-3-carboxamido)propanoic acid]
IC50 (αvβ1): < 0.1 µM | IC50 (αvβ6): < 0.1 µM

Structure (SMILES): O=C(NC[C@H](C(=O)O)c1cccc2ccccc12)[C@@H]1CCCN(CCCc2ccc3c(n2)NCCC3)C1 [Compound 250-B, 2-(naphthalen-1-yl)-3-((R)-1-(3-(5,6,7,8-tetrahydro-1,8-naphthyridin-2-yl)propyl)piperidine-3-carboxamido)propanoic acid]
IC50 (αvβ1): 0.1 to 1 µM | IC50 (αvβ6): > 1 µM

Structure (SMILES): O=C(NC[C@@H](C(=O)O)c1cccc(Oc2ccccc2)c1)[C@@H]1CCCN(CCCc2ccc3c(n2)NCCC3)C1 [Compound 251-A]
IC50 (αvβ1): 0.1 to 1 µM | IC50 (αvβ6): 0.1 to 1 µM

Structure (SMILES): O=C(NC[C@H](C(=O)O)c1cccc(Oc2ccccc2)c1)[C@@H]1CCCN(CCCc2ccc3c(n2)NCCC3)C1 [Compound 251-B]
IC50 (αvβ1): < 0.1 µM | IC50 (αvβ6): < 0.1 µM

Structure (SMILES): O=C(NC[C@@H](C(=O)O)c1cccc(C(F)(F)F)c1)[C@@H]1CCCN(CCCc2ccc3c(n2)NCCC3)C1 [Compound 252-A, 3-((R)-1-(3-(5,6,7,8-tetrahydro-1,8-naphthyridin-2-yl)propyl)piperidine-3-carboxamido)-2-(3-(trifluoromethyl)phenyl)propanoic acid]
IC50 (αvβ1): < 0.1 µM | IC50 (αvβ6): 0.1 to 1 µM
